{"source": "patent US10689367B2", "about": "“Triazole pyridyl compounds as agonists of the APJ receptor” (AMGEN INC., priority 2016, dated 2020)", "data": [{"molecular_target": "human APJ receptor (Homo sapiens (Human), UniProt P35414)", "sequence (P35414 whole entry)": "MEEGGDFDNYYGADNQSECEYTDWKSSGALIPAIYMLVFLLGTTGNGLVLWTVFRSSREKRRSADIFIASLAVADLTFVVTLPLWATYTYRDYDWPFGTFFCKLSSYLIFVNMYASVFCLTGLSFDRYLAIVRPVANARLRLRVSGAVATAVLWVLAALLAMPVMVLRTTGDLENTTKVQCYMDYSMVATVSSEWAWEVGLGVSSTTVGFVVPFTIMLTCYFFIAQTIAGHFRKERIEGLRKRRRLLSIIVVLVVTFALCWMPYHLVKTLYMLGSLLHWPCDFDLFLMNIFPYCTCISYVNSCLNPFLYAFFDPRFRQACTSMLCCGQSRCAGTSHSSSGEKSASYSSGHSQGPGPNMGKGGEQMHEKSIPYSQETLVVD", "experiment": "[35S]GTPγS binding assay on membranes from CHO cells stably expressing human APJ receptor", "assay_type": "biochemical", "conditions": "membranes of CHO cells stably expressing human APJ receptor, read-out: Activity hAPJ SPA EC50 IP", "procedure,_shortened": "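Agonist EC50 values come from non-linear regression of mean data from several independent runs. Membranes of CHO cells stably expressing human APJ were incubated 90 min at room temperature with [35S]GTPγS in buffer with optimized GDP, MgCl2 and NaCl, then read on a microplate imager.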", "units": {"EC50": "nM"}, "values": [{"compound": "COc1cccc(-c2nnc(NS(=O)(=O)[C@@H](C)[C@H](OC)c3ncc(Cl)cn3)n2[C@H](C)c2cncnc2)n1", "note": "(single isomer, unassigned) [Example 336.0, (1R,2S)-1-(5-chloropyrimidin-2-yl)-1-methoxy-N-(5-(6-methoxypyridin-2-yl)-4-((R)-1-(pyrimidin-5-yl)ethyl)-4H-1,2,4-triazol-3-yl)propane-2-sulfonamide or (1R,2S)-1-(5-chloropyrimidin-2-yl)-1-methoxy-N-(5-(6-methoxypyridin-2-yl)-4-((S)-1-(pyrimidin-5-yl)ethyl)-4H-1,2,4-triazol-3-yl)propane-2-sulfonamide]", "EC50": 15}, {"compound": "COc1cccc(-c2nnc(NS(=O)(=O)[C@@H](C)[C@H](OC)c3cnc(C)cn3)n2Cc2cnoc2)n1", "note": "[Example 188.0, (1R,2S)-N-(4-(isoxazol-4-ylmethyl)-5-(6-methoxypyridin-2-yl)-4H-1,2,4-triazol-3-yl)-1-methoxy-1-(5-methylpyrazin-2-yl)propane-2-sulfonamide]", "EC50": 1400}, {"compound": "COCC(COC)n1c(NS(=O)(=O)[C@@H](C)[C@@H](OC(C)C)c2ncc(F)cn2)nnc1-c1cccc(OC)n1", "note": "[Example 171.0, (1S,2S)-N-(4-(1,3-dimethoxy-2-propanyl)-5-(6-methoxy-2-pyridinyl)-4H-1,2,4-triazol-3-yl)-1-(5-fluoro-2-pyrimidinyl)-1-(2-propanyloxy)-2-propanesulfonamide]", "EC50": 0.37}, {"compound": "(1R,2S)-1-(5-Chloropyrimidin-2-yl)-1-methoxy-N-(4-((1R,2R)-2-methoxycyclobutyl)-5-(6-methoxypyridin-2-yl)-4H-1,2,4-triazol-3-yl)propane-2-sulfonamide and (1R,2S)-1-(5-chloropyrimidin-2-yl)-1-methoxy-N-(4-((1S,2S)-2-methoxycyclobutyl)-5-(6-methoxypyridin-2-yl)-4H-1,2,4-triazol-3-yl)propane-2-sulfonamide [Example 155.0]", "EC50": 3.1}, {"compound": "COc1cccc(-c2nnc(NS(=O)(=O)[C@@H](C)[C@@H](OC(C)C)c3ncc(C)cn3)n2C[C@H]2CCCCO2)n1", "note": "(single isomer, unassigned) [Example 301.0, (1S,2S)-1-isopropoxy-N-(5-(6-methoxypyridin-2-yl)-4-(((R)-tetrahydro-2H-pyran-2-yl)methyl)-4H-1,2,4-triazol-3-yl)-1-(5-methylpyrimidin-2-yl)propane-2-sulfonamide or (1S,2S)-1-isopropoxy-N-(5-(6-methoxypyridin-2-yl)-4-(((S)-tetrahydro-2H-pyran-2-yl)methyl)-4H-1,2,4-triazol-3-yl)-1-(5-methylpyrimidin-2-yl)propane-2-sulfonamide]", "EC50": 4.4}, {"compound": "COc1cccc(-c2nnc(NS(=O)(=O)[C@@H](C)[C@@H](OC(C)C)c3ncc(C)cn3)n2[C@@H](C)c2ccon2)n1", "note": "(single isomer, unassigned) [Example 270.0, (1S,2S)-1-isopropoxy-N-(4-((R)-1-(isoxazol-3-yl)ethyl)-5-(6-methoxypyridin-2-yl)-4H-1,2,4-triazol-3-yl)-1-(5-methylpyrimidin-2-yl)propane-2-sulfonamide or (1S,2S)-1-isopropoxy-N-(4-((S)-1-(isoxazol-3-yl)ethyl)-5-(6-methoxypyridin-2-yl)-4H-1,2,4-triazol-3-yl)-1-(5-methylpyrimidin-2-yl)propane-2-sulfonamide]", "EC50": 5.1}, {"compound": "COc1cccc(-c2nnc(NS(=O)(=O)[C@@H](C)[C@H](OC)c3ncc(Cl)cn3)n2C[C@@H]2COCCO2)n1", "note": "(racemic) [Example 304.0, (1R,2S)-N-(4-(((R)-1,4-dioxan-2-yl)methyl)-5-(6-methoxypyridin-2-yl)-4H-1,2,4-triazol-3-yl)-1-(5-chloropyrimidin-2-yl)-1-methoxypropane-2-sulfonamide or (1R,2S)-N-(4-(((S)-1,4-dioxan-2-yl)methyl)-5-(6-methoxypyridin-2-yl)-4H-1,2,4-triazol-3-yl)-1-(5-chloropyrimidin-2-yl)-1-methoxypropane-2-sulfonamide]", "EC50": 20}, {"compound": "COc1cccc(-c2nnc(NS(=O)(=O)[C@@H](C)[C@@H](OC(C)C)c3ncc(C)cn3)n2[C@H](C)[C@@H]2CCCCO2)n1", "note": "(single isomer, unassigned) [Example 322.0]", "EC50": 1.2}, {"compound": "CO[C@H](c1ncc(Cl)cn1)[C@H](C)S(=O)(=O)Nc1nnc(-c2ccccn2)n1C1(C)CC1", "note": "[Example 97.0]", "EC50": 11}, {"compound": "COc1cccc(-c2nnc(NS(=O)(=O)[C@@H](C)[C@H](OC)c3ncc(Cl)cn3)n2[C@@H](C)c2noc(C)n2)n1", "note": "(single isomer, unassigned) [Example 243.0, (1R,2S)-1-(5-chloro-2-pyrimidinyl)-1-methoxy-N-(5-(6-methoxy-2-pyridinyl)-4-((1S)-1-(5-methyl-1,2,4-oxadiazol-3-yl)ethyl)-4H-1,2,4-triazol-3-yl)-2-propanesulfonamide or (1R,2S)-1-(5-chloro-2-pyrimidinyl)-1-methoxy-N-(5-(6-methoxy-2-pyridinyl)-4-((1R)-1-(5-methyl-1,2,4-oxadiazol-3-yl)ethyl)-4H-1,2,4-triazol-3-yl)-2-propanesulfonamide]", "EC50": 3.7}, {"compound": "CC[C@H]([C@@H]1CCCCO1)n1c(NS(=O)(=O)[C@@H](C)[C@H](OC)c2ncc(C)cn2)nnc1-c1cncc(C)c1", "note": "(single isomer, unassigned) [Example 335.0]", "EC50": 14}, {"compound": "COCC1(n2c(NS(=O)(=O)[C@@H](C)[C@@H](OC(C)C)c3ncc(C)cn3)nnc2-c2cncc(C)c2)CC1", "note": "[Example 63.0]", "EC50": 20}, {"compound": "CC[C@H](c1c(C)noc1C)n1c(NS(=O)(=O)[C@@H](C)[C@H](OC)c2ncc(Cl)cn2)nnc1-c1cccc(OC)n1", "note": "(mixture of isomers) [Example 211.0, (1R,2S)-1-(5-chloro-2-pyrimidinyl)-N-(4-((1R)-1-(3,5-dimethyl-1,2-oxazol-4-yl)propyl)-5-(6-methoxy-2-pyridinyl)-4H-1,2,4-triazol-3-yl)-1-methoxy-2-propanesulfonamide and (1R,2S)-1-(5-chloro-2-pyrimidinyl)-N-(4-((1S)-1-(3,5-dimethyl-1,2-oxazol-4-yl)propyl)-5-(6-methoxy-2-pyridinyl)-4H-1,2,4-triazol-3-yl)-1-methoxy-2-propanesulfonamide]", "EC50": 1.8}, {"compound": "COc1cccc(-c2nnc(NS(=O)(=O)[C@@H](C)[C@H](OC)c3ncc(Cl)cn3)n2CCc2cccnc2)n1", "note": "[Example 284.0, (1R,2S)-1-(5-chloropyrimidin-2-yl)-1-methoxy-N-(5-(6-methoxypyridin-2-yl)-4-(2-(pyridin-3-yl)ethyl)-4H-1,2,4-triazol-3-yl)propane-2-sulfonamide]", "EC50": 120}, {"compound": "COc1cccc(-c2nnc(NS(=O)(=O)[C@@H](C)[C@H](OC)c3ncc(Cl)cn3)n2[C@@H](C)c2ccno2)n1", "note": "(single isomer, unassigned) [Example 212.0, (1R,2S)-1-(5-chloro-2-pyrimidinyl)-1-methoxy-N-(5-(6-methoxy-2-pyridinyl)-4-((1S)-1-(1,2-oxazol-5-yl)ethyl)-4H-1,2,4-triazol-3-yl)-2-propanesulfonamide or (1R,2S)-1-(5-chloro-2-pyrimidinyl)-1-methoxy-N-(5-(6-methoxy-2-pyridinyl)-4-((1R)-1-(1,2-oxazol-5-yl)ethyl)-4H-1,2,4-triazol-3-yl)-2-propanesulfonamide]", "EC50": 0.85}, {"compound": "COc1cccc(-c2nnc(NS(=O)(=O)[C@@H](C)[C@@H](OC(C)C)c3ncc(C)cn3)n2[C@@H](C)c2ncc(C)o2)n1", "note": "(single isomer, unassigned) [Example 241.0, (1S,2S)-N-(5-(6-methoxy-2-pyridinyl)-4-((1S)-1-(5-methyl-1,3-oxazol-2-yl)ethyl)-4H-1,2,4-triazol-3-yl)-1-(5-methyl-2-pyrimidinyl)-1-(2-propanyloxy)-2-propanesulfonamide or (1S,2S)-N-(5-(6-methoxy-2-pyridinyl)-4-((1R)-1-(5-methyl-1,3-oxazol-2-yl)ethyl)-4H-1,2,4-triazol-3-yl)-1-(5-methyl-2-pyrimidinyl)-1-(2-propanyloxy)-2-propanesulfonamide]", "EC50": 7.4}, {"compound": "CC[C@@H](C)n1c(NS(=O)(=O)[C@@H](C)[C@H](OC)c2ncc(Cl)cn2)nnc1-c1cccc(OC)n1", "note": "(single isomer, unassigned) [Example 55.0]", "EC50": 0.4}, {"compound": "COc1cccc(-c2nnc(NS(=O)(=O)[C@@H](C)[C@@H](OC(C)C)c3ncc(C)cn3)n2[C@@H](C)c2ncnn2C)n1", "note": "(single isomer, unassigned) [Example 253.0, (1S,2S)-N-(5-(6-methoxy-2-pyridinyl)-4-((1R)-1-(1-methyl-1H-1,2,4-triazol-5-yl)ethyl)-4H-1,2,4-triazol-3-yl)-1-(5-methyl-2-pyrimidinyl)-1-(2-propanyloxy)-2-propanesulfonamide or (1S,2S)-N-(5-(6-methoxy-2-pyridinyl)-4-((1S)-1-(1-methyl-1H-1,2,4-triazol-5-yl)ethyl)-4H-1,2,4-triazol-3-yl)-1-(5-methyl-2-pyrimidinyl)-1-(2-propanyloxy)-2-propanesulfonamide]", "EC50": 32}, {"compound": "COc1cccc(-c2nnc(NS(=O)(=O)[C@@H](C)[C@H](OC)c3ncc(Cl)cn3)n2[C@@H]2CC[C@H]2OC)n1", "note": "(single isomer, unassigned) [Example 161.0, (1R,2S)-1-(5-Chloropyrimidin-2-yl)-1-methoxy-N-(4-((1R,2R)-2-methoxycyclobutyl)-5-(6-methoxypyridin-2-yl)-4H-1,2,4-triazol-3-yl)propane-2-sulfonamide or (1R,2S)-1-(5-chloropyrimidin-2-yl)-1-methoxy-N-(4-((1S,2S)-2-methoxycyclobutyl)-5-(6-methoxypyridin-2-yl)-4H-1,2,4-triazol-3-yl)propane-2-sulfonamide]", "EC50": 2.2}, {"compound": "COc1ccc(Cn2c(NS(=O)(=O)[C@@H](C)[C@H](OC)c3ncc(Cl)cn3)nnc2-c2cccc(OC)n2)cc1", "note": "[Example 170.0, (1R,2S)-1-(5-chloropyrimidin-2-yl)-1-methoxy-N-(4-(4-methoxybenzyl)-5-(6-methoxypyridin-2-yl)-4H-1,2,4-triazol-3-yl)propane-2-sulfonamide]", "EC50": 0.76}, {"compound": "Cc1cncc(-c2nnc(NS(=O)(=O)[C@@H](C)[C@@H](OC(C)C)c3ncc(Cl)cn3)n2C2CC2)c1", "note": "[Example 129.0]", "EC50": 66}]}]}
